Values of other authors, collected in patent US20210244720A1, “Therapeutic Tyrosine Kinase Inhibitors for Relapsing Multiple Sclerosis (RMS)” (Genzyme Corporation, priority 2020, published 2021).

Test system: RMS patients
Conditions: from Week 12; cited from earlier work

## C=CC(=O)N1CCC(CNc2ncnc(N)c2-c2ccc(Oc3ccccc3)cc2)CC1 [evobrutinib]
  reduction of new Gd-enhancing T1 lesions: meaningful reduction
